Consider 25 compounds from US11370774B2, “Substituted benzofuran, benzopyrrole, benzothiophene, and structurally related complement inhibitors” (BioCryst Pharmaceuticals, Inc., priority 2018, dated 2022).

This assay deals with Factor D (Homo sapiens (Human), UniProt P00746). Briefly: Factor D esterolytic assay (Z-Lys-SBzl substrate, DTNB, 405 nm). Conditions: Z-Lys-SBzl 1.29 mM, pH 7.5, 10% DMSO, tested a minimum of three times, read-out: Measured Ki (IC50) Value for Compounds: IC50. The format is biochemical. The essentials: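 Human Factor D ([…]) with 1.29 mM Z-Lys-SBzl in 100 mM HEPES, 500 mM NaCl, pH 7.5, 10% DMSO; substrate added immediately or after room-temperature preincubation. Released thiol reacted with DTNB, rate followed at 405 nm for 600 sec, 690 nm background subtracted. IC50 from percent inhibition versus uninhibited rate, n≥3.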
Factor D, sequence (P00746 26-253): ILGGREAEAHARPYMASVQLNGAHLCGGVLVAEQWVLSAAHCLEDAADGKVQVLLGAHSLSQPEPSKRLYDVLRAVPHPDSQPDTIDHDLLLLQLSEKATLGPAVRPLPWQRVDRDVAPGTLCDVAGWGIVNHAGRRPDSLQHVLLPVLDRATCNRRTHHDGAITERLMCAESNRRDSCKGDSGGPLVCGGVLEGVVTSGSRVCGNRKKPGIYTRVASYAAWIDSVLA
In general, IC50 refers to the concentration that gives 50% inhibition. Consider `CC(C)(C)c1cc(OCc2cc(-c3cccc(CN)c3)c3occc3c2)c(CC(=O)O)cc1Cl` [Compound 308h, 2-(2-((7-(3-(aminomethyl)phenyl)benzofuran-5-yl)methoxy)-4-(tert-butyl)-5-chlorophenyl)acetic acid], for which the 50% inhibitory concentration (IC50) is < 1000 nM.
Consider `COCc1cc2cc(COc3cc(C(N)=O)ccc3CC(=O)O)cc(-c3cccc(CN)c3)c2o1` [Compound 309h, 2-(2-((7-(3-(aminomethyl)phenyl)-2-(methoxymethyl)benzofuran-5-yl)methoxy)-4-carbamoylphenyl)acetic acid], for which the half-maximal inhibitory concentration (IC50) is < 1000 nM.
The value for `NCc1cc(-c2cc(COc3ccccc3CC(=O)O)cc3ccsc23)ccn1` [Compound 310c, 2-(2-((7-(2-(aminomethyl)pyridin-4-yl)benzo[b]thiophen-5-yl)methoxy)phenyl)acetic acid] was < 1000 nM; that for `NCc1cccc(-c2cc(COc3ccccc3Cc3nn[nH]n3)cc3ccoc23)c1` [Compound 311b, (3-(5-((2-((2H-tetrazol-5-yl)methyl)phenoxy)methyl)benzofuran-7-yl)phenyl)methanamine] was > 10000 nM; that for `CC(C)c1ccc(CC(=O)O)c(OCc2cc(-c3cccc(CN)c3)c3occc3c2)c1` [Compound 312b, 2-(2-((7-(3-(aminomethyl)phenyl)benzofuran-5-yl)methoxy)-4-isopropylphenyl)acetic acid] was < 1000 nM.
In the case of `NCc1cccc(-c2cc(COc3cc(-c4ccoc4)ccc3CC(=O)O)cc3ccoc23)c1` [Compound 313c, 2-(2-((7-(3-(aminomethyl)phenyl)benzofuran-5-yl)methoxy)-4-(furan-3-yl)phenyl)acetic acid] it was < 1000 nM.
On to `Cc1cccc(OCc2cc(-c3cccc(CN)c3)c3occc3c2)c1CC(=O)O` [Compound 314f, 2-(2-((7-(3-(aminomethyl)phenyl)benzofuran-5-yl)methoxy)-6-methylphenyl)acetic acid], for which the IC50 was < 1000 nM.
In the case of `CCc1ccc(CC(=O)O)c(OCc2cc(-c3cccc(CN)c3F)c3occc3c2)c1` [Compound 315f, 2-(2-((7-(3-(aminomethyl)-2-fluorophenyl)benzofuran-5-yl)methoxy)-4-ethylphenyl)acetic acid] it was < 1000 nM.
Take `CCc1ccc(CC(=O)O)c(OCc2cc(-c3cccc(CN)c3)c3occc3c2)c1` [Compound 316b, 2-(2-((7-(3-(aminomethyl)phenyl)benzofuran-5-yl)methoxy)-4-ethylphenyl)acetic acid]: the half-inhibitory concentration (IC50) is < 1000 nM.
The value for `CC(C)(C)c1ccc(CC(=O)O)c(OCc2cc(-c3cccc(CN)c3)c3occc3c2)c1` [Compound 317f, 2-(2-((7-(3-(aminomethyl)phenyl)benzofuran-5-yl)methoxy)-4-(tert-butyl)phenyl)acetic acid] was < 1000 nM; that for `NCc1cccc(-c2cc(COc3cc(-c4ccco4)ccc3CC(=O)O)cc3ccoc23)c1` [Compound 318c, 2-(2-((7-(3-(aminomethyl)phenyl)benzofuran-5-yl)methoxy)-4-(furan-2-yl)phenyl)acetic acid] was < 1000 nM; that for `NCc1cccc(-c2cc(COc3cc(-c4cccnc4)ccc3CC(=O)O)cc3ccoc23)c1` [Compound 319c, 2-(2-((7-(3-(aminomethyl)phenyl)benzofuran-5-yl)methoxy)-4-(pyridin-3-yl)phenyl)acetic acid] was < 1000 nM.
For the compound `Cc1cc(-c2ccc(CC(=O)O)c(OCc3cc(-c4cccc(CN)c4)c4occc4c3)c2)ccn1` [Compound 320c, 2-(2-((7-(3-(aminomethyl)phenyl)benzofuran-5-yl)methoxy)-4-(2-methylpyridin-4-yl)phenyl)acetic acid], the concentration for half-maximal inhibition (IC50) is < 1000 nM.
Consider `COc1ccc(C(SC)C(=O)O)c(OCc2cc(-c3cccc(CN)c3)c3occc3c2)c1` (stereo not shown) [Compound 321f, 2-(2-((7-(3-(aminomethyl)phenyl)benzofuran-5-yl)methoxy)-4-methoxyphenyl)-2-(methylthio)acetic acid], for which the IC50 was < 1000 nM.
Consider `Cc1cc(-c2ccc(CC(=O)O)c(OCc3cc(-c4cccc(CN)c4)c4occc4c3)c2)cnc1F` [Compound 322c, 2-(2-((7-(3-(aminomethyl)phenyl)benzofuran-5-yl)methoxy)-4-(6-fluoro-5-methylpyridin-3-yl)phenyl)acetic acid], for which the 50% inhibitory concentration (IC50) was < 1000 nM.
In the case of `COc1ncc(-c2ccc(CC(=O)O)c(OCc3cc(-c4cccc(CN)c4)c4occc4c3)c2)cc1C` [Compound 322d, 2-(2-((7-(3-(aminomethyl)phenyl)benzofuran-5-yl)methoxy)-4-(6-methoxy-5-methylpyridin-3-yl)phenyl)acetic acid] it was < 1000 nM.
The value for `NCc1cccc(-c2cc(COc3cc(-c4ccncc4)ccc3CC(=O)O)cc3ccoc23)c1` [Compound 323c, 2-(2-((7-(3-(aminomethyl)phenyl)benzofuran-5-yl)methoxy)-4-(pyridin-4-yl)phenyl)acetic acid] was < 1000 nM; that for `N#Cc1ccc(-c2ccc(CC(=O)O)c(OCc3cc(-c4cccc(CN)c4)c4occc4c3)c2)s1` [Compound 324c, 2-(2-((7-(3-(aminomethyl)phenyl)benzofuran-5-yl)methoxy)-4-(5-cyanothiophen-2-yl)phenyl)acetic acid] was < 1000 nM; that for `NCc1cccc(-c2cc(COc3cc(-c4ccc(C(=O)O)s4)ccc3CC(=O)O)cc3ccoc23)c1` [Compound 325a, 5-(3-((7-(3-(aminomethyl)phenyl)benzofuran-5-yl)methoxy)-4-(carboxymethyl)phenyl)thiophene-2-carboxylic acid] was < 1000 nM.
Consider `NCc1cccc(-c2cc(COc3cccc(F)c3CC(=O)O)cc3ccoc23)c1` [Compound 328f, 2-(2-((7-(3-(aminomethyl)phenyl)benzofuran-5-yl)methoxy)-6-fluorophenyl)acetic acid], for which the IC50 is < 1000 nM.
Take `NCc1cc(-c2cc(COc3ccc(F)cc3CC(=O)O)cc3ccoc23)ccn1` [Compound 329b, 2-(2-((7-(2-(aminomethyl)pyridin-4-yl)benzofuran-5-yl)methoxy)-5-fluorophenyl)acetic acid]: the IC50 is < 1000 nM.
The value for `CC(=O)c1ccc(OCc2cc(-c3cccc(CN)c3)c3occc3c2)c(CC(=O)O)c1` [Compound 330c, 2-(5-acetyl-2-((7-(3-(aminomethyl)phenyl)benzofuran-5-yl)methoxy)phenyl)acetic acid] was < 1000 nM.
In the case of `NCc1cccc(-c2cc(COc3ccc(CN)cc3CC(=O)O)cc3ccoc23)c1` [Compound 331c, 2-(5-(aminomethyl)-2-((7-(3-(aminomethyl)phenyl)benzofuran-5-yl)methoxy)phenyl)acetic acid] it was < 1000 nM; in that of `NCc1cccc(-c2cc(COc3ccccc3CC(=O)O)cc3[nH]c(C(F)(F)F)cc23)c1` [Compound 332e, 2-(2-((4-(3-(aminomethyl)phenyl)-2-(trifluoromethyl)-1H-indol-6-yl)methoxy)phenyl)acetic acid], < 1000 nM.
On to `Cc1oc2c(-c3cccc(CN)c3)cc(COc3ccccc3CC(=O)O)cc2c1C` [Compound 333g, 2-(2-((7-(3-(aminomethyl)phenyl)-2,3-dimethylbenzofuran-5-yl)methoxy)phenyl)acetic acid], for which the half-inhibitory concentration (IC50) was < 1000 nM.
